# Measurements as given in PubChem BioAssay AID588671 (Sanford-Burnham Center for Chemical Genomics, 2011).
# pIC50: −log10 of the molar value. Activity calls are given as the source filed them.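 How the source made its calls: active means IC50 at or below 20 µM; inactive means the rest.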
# Target: glucose-6-phosphate dehydrogenase-6-phosphogluconolactonase (PfGluPho), Plasmodium falciparum 3D7
# Experiment: inhibition of P. falciparum G6PD activity – biochemical, fluorescence intensity, set 2, SAR follow-up (AID 588671)
# Conditions: recombinant PfGluPho, diaphorase-resazurin NADPH fluorescence
IC50,pIC50,Compound
–,5.32,CCN1CCC[C@H]1CNC(=O)c1ccc2c(c1)NC(=O)/C(=C/c1ccccc1F)S2
inactive,–,O=C(NCCN1CCCCC1)c1ccc2c(c1)NC(=O)c1ccccc1O2
–,5.92,CCN1CCC[C@@H]1CNC(=O)c1ccc2c(c1)NC(=O)/C(=C/c1ccccc1F)S2
> 80 µM (inactive),–,O=C(NCCN1CCOCC1)c1ccc2c(c1)NC(=O)c1ccccc1O2
–,5.00,CCN1CCCC1CNC(=O)c1ccc2c(c1)NC(=O)c1ccccc1S2 (configuration not stated)
–,5.77,CCN1CCCC1CNC(=O)c1ccc2c(c1)NC(=O)/C(=C/c1ccccc1F)S2 (configuration not stated)
inactive,–,CCN(CC)CCNC(=O)c1ccc2c(c1)NC(=O)c1ccccc1O2
inactive,–,CCN1CCCC1CNC(=O)c1ccc2c(c1)NC(=O)c1ccccc1O2 (configuration not stated)
> 80 µM (inactive),–,CCN1CCCC1CNC(=O)c1ccc2c(c1)NC(=O)CO2 (configuration not stated)
inactive,–,O=C(NCCN1CCCC1)c1ccc2c(c1)NC(=O)c1ccccc1O2
–,5.23,CCN1CCCC1CNC(=O)c1ccc2c(c1)NC(=O)/C(=C/c1ccccc1C)S2 (configuration not stated)
–,5.37,CCN1CCCC1CNC(=O)c1ccc2c(c1)NC(=O)/C(=C/c1cccc3ccccc13)S2 (configuration not stated)
> 80 µM (inactive),–,CN(C)CCNC(=O)c1ccc2c(c1)NC(=O)c1ccccc1O2
–,5.01,CCN1CCCC1CNC(=O)c1ccc2c(c1)NC(=O)/C(=C/c1ccccc1OC)S2 (configuration not stated)

# More lines, now with the values behind:
Compound,IC50,pIC50
O=C1Nc2cc(C(=O)NCCN3CCOCC3)ccc2S/C1=C\c1ccccc1F,> 80 µM (inactive),–
O=C1Nc2cc(C(=O)NCc3ccccc3)ccc2S/C1=C\c1ccccc1F,> 80 µM (inactive),–
CN1CCN(C(=O)c2ccc3c(c2)NC(=O)/C(=C/c2ccccc2Cl)S3)CC1,> 80 µM (inactive),–
O=C(NCCN1CCCC1)c1ccc2c(c1)NC(=O)c1ccccc1S2,inactive,–
O=C1COc2ccc(C(=O)NCCN3CCOCC3)cc2N1,> 80 µM (inactive),–
CCN1CCCC1CNC(=O)c1ccc2c(c1)NC(=O)CS2 (configuration not stated),> 80 µM (inactive),–
CN1CCCC1CCNC(=O)c1ccc2c(c1)NC(=O)/C(=C/c1ccccc1F)S2 (configuration not stated),inactive,–
O=C1COc2ccc(C(=O)NCCN3CCCCC3)cc2N1,> 80 µM (inactive),–
CCN(CC)CCNC(=O)c1ccc2c(c1)NC(=O)CO2,> 80 µM (inactive),–
CCN(CC)CCNC(=O)c1ccc2c(c1)NC(=O)c1ccccc1S2,inactive,–
O=C1Nc2cc(C(=O)NCCN3CCCCC3)ccc2S/C1=C\c1ccccc1F,inactive,–
CN(C)CCNC(=O)c1ccc2c(c1)NC(=O)CO2,> 80 µM (inactive),–
O=C1COc2ccc(C(=O)NCCN3CCCC3)cc2N1,> 80 µM (inactive),–
